# From publication PMC7501296, “Rapid and direct control of target protein levels with VHL-recruiting dTAG molecules” (Nature Communications, 2020)
# Target: T1, FKBP12^F36V-KRAS^G12V (Homo sapiens, UniProt P01116+P62942, F37V/G12V)
# T1 construct: KRAS G12V (fusion partner, same polypeptide); expressed in transfected cells
# Assay: Immunoblot of PATU-8902 FKBP12F36V-KRASG12V; KRAS-/- clone
# Assay type: cell-based
# Conditions: pretreated 2 h prior to dTAGV-1 for 4 h
# Protocol: PATU-8902 LACZ-FKBP12^F36V and FKBP12^F36V-KRAS^G12V; KRAS^−/− cells and 293T cells were lysed with RIPA buffer supplemented with cOmplete protease inhibitors (Roche), PhosSTOP phosphatase inhibitors (Roche), and 0.1% benzonase (Novagen). Proteins were separated using NuPAGE Bolt^TM Bis–Tris gels (Thermo Fisher Scientific) and transferred to nitrocellulose membranes, which were blocked with Odyssey Blocking Buffer (LI-COR) and incubated with primary antibodies overnight. Membranes were washed three times with TBS-T, incubated with the appropriate fluorescently labeled infrared secondary antibodies, washed again three times with TBS-T, and assessed using an Odyssey CLx Imager (LI-COR)[6],[15]. EWS502 cells were lysed with Cell Lysis Buffer (Cell Signaling Technology) supplemented with cOmplete protease inhibitors (Roche). Proteins were separated using SDS-PAGE gels and transferred to PVDF membranes, which were blocked with 5% milk in TBS-T and incubated with primary antibodies overnight. Membranes were washed five times with TBS-T, incubated with the appropriate horseradish peroxidase-conjugated secondary antibodies, washed again five times with TBS-T, and imaged. The following primary antibodies were employed in this study: HA (Cell Signaling Technology #3724 and #2367, dilution at 1:1000), phospho-ERK1/2 T202/Y204 (Cell Signaling Technology #4370, dilution at 1:1000), ERK1/2 (Cell Signaling Technology #4696, dilution at 1:1000), phospho-AKT S473 (Cell Signaling Technology #4060, dilution at 1:1000), AKT (Cell Signaling Technology #2920, dilution at 1:1000), FKBP12 (Abcam #ab24373, dilution at 1:1000), GFP (Cell Signaling Technology #2555, dilution at 1:1000), FLI (Abcam #ab15289, dilution at 1:2000), NKX2-2 (Abcam #ab187375, dilution at 1:1000), GAPDH (Cell Signaling Technology #2118, dilution at 1:3000), Vinculin (Cell Signaling Technology #13901, dilution at 1:3000), β-Actin (Cell Signaling Technology #58169, dilution at 1:3000), and α-Tubulin (Cell Signaling Technology #3873, dilution at 1:5000). Species-specific fluorescently labeled infrared secondary antibodies including IRDye 680LT anti-Mouse IgG (LI-COR #926-68020, dilution at 1:5000), IRDye 800CW anti-Mouse IgG (LI-COR #926-32210, dilution at 1:5000), IRDye 680LT anti-Rabbit IgG (LI-COR #926-68021, dilution at 1:5000), and IRDye 800CW anti-Rabbit IgG (LI-COR #926-32211, dilution at 1:5000) and peroxidase-linked secondary antibodies including anti-Mouse IgG (Thermo Fisher Scientific #45000680, dilution at 1:5000) and anti-Rabbit IgG (Thermo Fisher Scientific #45000682, dilution at 1:5000) were employed as appropriate.
# T1 sequence (P62942+P01116 fused P62942:F37V/P01116:G12V): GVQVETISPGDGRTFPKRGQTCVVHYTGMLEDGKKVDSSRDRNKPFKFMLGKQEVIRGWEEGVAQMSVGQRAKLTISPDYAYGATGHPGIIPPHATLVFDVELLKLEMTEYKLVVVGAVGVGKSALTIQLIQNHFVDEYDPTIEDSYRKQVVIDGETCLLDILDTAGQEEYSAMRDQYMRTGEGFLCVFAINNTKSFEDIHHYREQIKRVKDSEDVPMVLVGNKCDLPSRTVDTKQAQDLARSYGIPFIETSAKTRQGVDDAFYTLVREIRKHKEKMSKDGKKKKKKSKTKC
row,Effect of pre-treatment on dTAGV-1-induced KRASG12V degradation,Structure (SMILES)
1,rescued,NS(=O)(=O)OC[C@@H]1C[C@@H](n2ccc3c(N[C@H]4CCc5ccccc54)ncnc32)C[C@@H]1O [MLN4924]
2,rescued,CC(C)C[C@H](NC(=O)[C@H](CCc1ccccc1)NC(=O)CN1CCOCC1)C(=O)N[C@@H](Cc1ccccc1)C(=O)N[C@@H](CC(C)C)C(=O)[C@@]1(C)CO1 [carfilzomib]
